In US5563128A, “Phosphonate derivatives of lipophilic amines” (Rhone-Poulenc Rorer Pharmaceuticals Inc., priority 1995, dated 1996):

Target: T1, squalene synthase (Rattus norvegicus, UniProt Q02769)
T1 construct: Microsomes are prepared by centrifugation (100,000 g) and then resuspended in the assay buffer; from tissue; host or cells: liver microsomes of male Sprague-Dawley rats (animals from Taconic Farms, Germantown, N.Y.)
T1 sequence (Q02769 1-416): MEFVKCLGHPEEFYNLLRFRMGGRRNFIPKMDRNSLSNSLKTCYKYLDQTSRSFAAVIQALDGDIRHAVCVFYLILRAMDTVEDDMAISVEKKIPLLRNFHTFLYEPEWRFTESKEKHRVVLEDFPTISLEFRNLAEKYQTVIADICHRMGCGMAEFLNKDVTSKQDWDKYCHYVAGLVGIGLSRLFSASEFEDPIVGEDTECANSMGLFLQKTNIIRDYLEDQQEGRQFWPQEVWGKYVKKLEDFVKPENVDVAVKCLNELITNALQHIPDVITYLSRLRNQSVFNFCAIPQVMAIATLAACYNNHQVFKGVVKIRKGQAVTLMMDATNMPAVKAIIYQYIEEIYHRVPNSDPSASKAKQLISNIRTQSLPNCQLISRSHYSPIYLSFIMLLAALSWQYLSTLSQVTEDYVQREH
Assay: Squalene Synthase Inhibition Assay (rat liver microsomes, [3H]FPP)
Format: biochemical, rat (male Sprague-Dawley)
Details: for IC50: 50 mM, pH 7.4
Experimental: Squalene Synthase Inhibition Assay
I. Preparation of Assay Substances:
Test solutions are prepared fresh in 100% DMSO or dH2 O. Subsequent dilutions are made in the same solvent. Compounds are tested initially at 1 μM (final concentrations).
Potassium Phosphate (50 mM,) pH 7.4, and HEPES (4-(2-hydroxyethyl)-1-piperazineethanesulfonic acid, 50 mM) pH 7.4 stock buffers are prepared and stored at 4° C. until use.
C) Microsomal Enzyme Preparation:
Fresh livers from male Sprague-Dawley rats (Taconic Farms, Germantown, N.Y.) weighing 150-200 g are collected after exsanguination. All subsequent procedures are performed at 4° C. The liver is homogenized in the assay buffer (50 mM, pH 7.4). Cellular fractions are separated as described by Popjak, G. in "Enzymes of sterol biosynthesis in liver and intermediates of sterol biosynthesis," Meth. Enzymol. […] Microsomes are prepared by centrifugation (100,000 g) and then resuspended in the assay buffer. Microsomes are rehomogenized with a motor-driven Teflon pestle to yield a uniform suspension (~30 mg protein/ml), aliquoted, and stored at -80° C. until use.
II. Squalene Synthase Assay
The procedure is a modification of those described by Popjack (ibid) and Poulter et al. in "Squalene synthase. Inhibition by ammonium analogues of carbocationic intermediates in the conversion of presqualene diphosphate to squalene" J. Am. Chem. Soc. […] All components except [^3 H]FPP are preincubated for 10 min. at 37° C. The reaction is initiated by the addition of [^3 H]FPP. […] The tubes are incubated at 65° C. for 30 min. to solubilize proteins. The mixture is extracted with 5 ml petroleum ether for 10 min. After freezing the lower aqueous phase, the organic phase is transferred to glass tubes containing 2 ml distilled water. After washing the lower aqueous phase is frozen and the petroleum ether phase is removed and counted with 10 ml Ready Safe liquid scintillation cocktail using a Beckman LS-9000 scintillation counter. DPM values are adjusted against a blank (no enzyme).
The difference in radioactivity in the presence and absence of the test compound is used to determine the level of inhibition. […] Tallarida, R. J. and Murray, R. B. Manual of pharmacologic calculations with computer programs.

Compound | inhibition at 10 µM (HEPES buffer) [%] | inhibition at 5 µM (Phosphate buffer, @ 5 μM) [%] | IC50 (HEPES buffer) [µM] | inhibition at 10 µM (Phosphate buffer) [%]
COP(=O)(O)C(CCN[C@@H]1CC=CC[C@H]1c1ccc(/C=C/c2ccccc2)cc1)P(=O)(O)OC (relative stereo) | 69 | – | – | –
O=P(O)(O)CCCN[C@@H]1CC=CC[C@H]1c1ccc(/C=C/c2ccccc2)cc1 (relative stereo) | -2 | 61 | – | –
O=P(O)(O)C(CCN[C@@H]1CCCC[C@H]1OCc1ccc(-c2nc3ccccc3o2)cc1)P(=O)(O)O (relative stereo) | – | – | 0.013 | –
O=P(O)(O)CCCN1CCC=C(c2ccc(-c3nc4ccccc4o3)cc2)C1 | – | – | 17 | 35
CCOP(=O)(OCC)C(CCN[C@@H]1CCCC[C@H]1OCc1ccc(-c2nc3ccccc3o2)cc1)P(=O)(OCC)OCC (relative stereo) | 14 | – | – | –
